We go through twelve compounds from article PMC7037682, “Herb–Drug Interaction of Red Ginseng Extract and Ginsenoside Rc with Valsartan in Rats” (Molecules, 2020).

One series deals with T1, OATP1B3 (Homo sapiens, UniProt Q9NPD5).
T1 sequence (Q9NPD5 1-702): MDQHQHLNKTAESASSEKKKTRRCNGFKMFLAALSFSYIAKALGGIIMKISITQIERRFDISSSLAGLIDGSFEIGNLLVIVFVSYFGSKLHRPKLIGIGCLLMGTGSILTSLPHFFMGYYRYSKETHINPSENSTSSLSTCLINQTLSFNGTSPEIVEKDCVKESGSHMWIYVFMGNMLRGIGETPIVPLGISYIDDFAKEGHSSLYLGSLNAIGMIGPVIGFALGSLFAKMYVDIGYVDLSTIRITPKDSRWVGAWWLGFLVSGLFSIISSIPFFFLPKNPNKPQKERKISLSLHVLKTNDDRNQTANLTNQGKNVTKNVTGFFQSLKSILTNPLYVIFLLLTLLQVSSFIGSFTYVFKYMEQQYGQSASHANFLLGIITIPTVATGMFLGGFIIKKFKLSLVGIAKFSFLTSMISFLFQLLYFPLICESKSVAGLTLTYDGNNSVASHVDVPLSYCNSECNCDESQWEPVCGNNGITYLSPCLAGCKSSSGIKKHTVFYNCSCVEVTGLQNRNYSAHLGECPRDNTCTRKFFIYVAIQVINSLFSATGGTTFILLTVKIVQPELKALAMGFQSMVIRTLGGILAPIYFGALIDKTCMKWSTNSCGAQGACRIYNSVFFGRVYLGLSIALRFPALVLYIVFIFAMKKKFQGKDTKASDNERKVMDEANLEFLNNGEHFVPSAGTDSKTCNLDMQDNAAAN
As to the kind of experiment: Inhibition of OATP1B3-mediated valsartan uptake in HEK293-OATP1B3 cells. In kind it is cell-based. More on the design: host or cells: HEK293. The note with it: 5 μM valsartan, 5 min. As for the experimental part:
(§1) Transporter mediated uptake of probe substrates or valsartan was calculated by subtracting the uptake rate of probe substrates or valsartan into HEK293-mock cells from that into HEK293 cells expressing respective transporters.

Series [1] concerns the target T2, OATP1B1 (Homo sapiens, UniProt Q9Y6L6).
T2 sequence (Q9Y6L6 1-691): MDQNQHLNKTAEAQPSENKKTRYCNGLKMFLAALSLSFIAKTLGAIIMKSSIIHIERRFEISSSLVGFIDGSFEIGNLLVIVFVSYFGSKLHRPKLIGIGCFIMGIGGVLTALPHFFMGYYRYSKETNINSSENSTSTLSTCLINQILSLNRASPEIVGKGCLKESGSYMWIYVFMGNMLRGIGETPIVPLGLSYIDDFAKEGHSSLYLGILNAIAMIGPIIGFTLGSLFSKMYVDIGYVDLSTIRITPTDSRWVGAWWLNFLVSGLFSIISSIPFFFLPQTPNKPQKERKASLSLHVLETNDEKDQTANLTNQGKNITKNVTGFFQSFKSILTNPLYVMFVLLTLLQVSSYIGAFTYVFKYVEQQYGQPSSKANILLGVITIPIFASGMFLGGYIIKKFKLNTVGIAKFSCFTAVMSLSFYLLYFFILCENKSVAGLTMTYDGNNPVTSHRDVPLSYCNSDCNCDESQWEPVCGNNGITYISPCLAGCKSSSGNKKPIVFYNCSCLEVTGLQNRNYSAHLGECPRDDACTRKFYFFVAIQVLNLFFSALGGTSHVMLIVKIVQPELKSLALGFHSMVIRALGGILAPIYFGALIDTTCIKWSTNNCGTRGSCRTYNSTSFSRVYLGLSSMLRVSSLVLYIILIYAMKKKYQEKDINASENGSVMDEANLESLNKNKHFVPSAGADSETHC
Kind of series: Inhibition of OATP1B1-mediated valsartan uptake in HEK293-OATP1B1 cells. The series is classed as cell-based. More on the design: host or cells: HEK293. As to conditions: 5 μM valsartan, 5 min. As for the experimental part: as §1

Series [2] can be described thus: Protein binding in rat plasma by rapid equilibrium dialysis. The series is classed as in vitro ADME. As to conditions: rapid equilibrium dialysis 4 h 37 °C. As for the experimental part:
The protein binding of Rb1, Rb2, and Rc (1 μM) in rat plasma and liver homogenate was determined using a rapid equilibrium dialysis kit (ThermoFisher Scientific Korea, Seoul, Korea) according to the manufacturer’s instructions. Briefly, 100 μL of rat plasma and 10% liver homogenate samples containing Rb1, Rb2, or Rc (1 μM) were added to the sample chamber of a semipermeable membrane (molecular weight cut-off 8000 Da) and 300 μL of HBSS was added to the outer buffer chamber. Four hours after incubation at 37 °C on a shaking incubator at 300 rpm, aliquots (50 μL) were collected from both the sample and buffer chambers and treated with equal volumes of fresh HBSS and plasma, respectively, to match the sample matrices. The matrix-matched samples (100 μL) were mixed with 300 μL of 80% ice-cold methanol containing berberine 0.05 ng/mL and 0.1% formic acid for 15 min.
Plasma protein binding was calculated using the following equation [47]. (1) Undiluted free drug fraction fu= Drug concentration in buffer chamber/Drug concentration in plasma chamber

Series [3] concerns the target T2, OATP1B1. As to the kind of experiment: Inhibition of OATP1B1-mediated [3H]estrone-3-sulfate uptake in HEK293-OATP1B1 cells. As for the experimental part: HEK293 cells overexpressing the OCT1, OCT2, OAT1, OAT3, OATP1B1, and OATP1B3 transporters (HEK293-OCT1, -OCT2, -OAT1, -OAT3, -OATP1B1, and -OATP1B3, respectively) and HEK293-mock cells (Corning Life Sciences; Woburn, MA, USA) were used and characterized as previously described.
HEK293 cells overexpressing drug transporters and HEK293-mock cells were seeded in poly-D-lysine-coated 96-well plates at a density of 10^5 cells/well and were cultured in DMEM supplemented with 10% FBS, 5 mM non-essential amino acids, and 2 mM sodium butyrate in a humidified atmosphere with 8% CO2 at 37 °C.
To examine the effects of ginsenosides and typical inhibitors on transporter activity, aliquots (100 μL) of HBSS containing the probe substrate and ginsenosides or typical inhibitors were added to the cells after aspirating pre-incubated HBSS. The concentrations and probe substrates were as follows: 0.1 μM [^3H]MPP^+ for OCT1 and OCT2, 0.1 μM [^3H]PAH for OAT1, 0.1 μM [^3H]ES for OAT3 and OATP1B1, and 0.1 μM [^3H]EG for OATP1B3. […] Then the uptake of probe substrates into HEK293-mock cells and HEK293-OCT1, -OCT2, -OAT1, -OAT3, -OATP1B1, and -OATP1B3 cells in the presence and absence of typical inhibitor or each ginsenoside with previously described concentration range was measured for 5 min. Immediately after placing the plates on ice, the cells were washed three times with 100 μL of ice-cold HBSS, followed by lysing with 50 μL of 10% SDS solution and mixing with 150 μL of Optiphase cocktail solution (Perkin Elmer Inc., Boston, MA, USA). The radioactivity of the probe substrates in the cells was determined using a liquid scintillation counter.
In the inhibition studies, the uptake rate of substrate by HEK293 cells overexpressing the respective transporters was used as the control (100%) and the uptake rate of substrates in the presence of typical inhibitors or ginsenosides expressed as a percentage of the control. The inhibition data were fitted to an inhibitory effect model using Sigma plot (version 10.0; Systat Software Inc., San Jose, CA, USA). IC50 value indicated the half-maximal inhibitory concentration of the inhibitor.

The test system of the next series is UGT1A9. As to conditions: cited from earlier work; for IC50: read-out: IC50 UGT1A9.
[4] abbreviates: HEK293-OATP1B1, 0.1 μM [3H]ES uptake, 5 min.
Setting [5] is: read-out: IC50 OATP1B1, HEK293-OATP1B1, 0.1 μM [3H]ES uptake, 5 min.

Some results are limits rather than exact numbers.

As a reminder, the IC50 is the concentration that gives 50% inhibition. As a reminder, the fraction unbound is free concentration divided by total concentration. A low value points to extensive binding. For `CC(C)=CCC[C@](C)(O[C@@H]1O[C@H](CO[C@@H]2O[C@@H](CO)[C@H](O)[C@H]2O)[C@@H](O)[C@H](O)[C@H]1O)[C@H]1CC[C@]2(C)[C@@H]1[C@H](O)C[C@@H]1[C@@]3(C)CC[C@H](O[C@@H]4O[C@H](CO)[C@@H](O)[C@H](O)[C@H]4O[C@@H]4O[C@H](CO)[C@@H](O)[C@H](O)[C@H]4O)C(C)(C)[C@@H]3CC[C@]12C` [Rc, ginsenoside Rc], the IC50 on OATP1B3 turned out to be 1.9 µM; at OATP1B1 [1], 13.6 µM; on OATP1B1 [3], 18.3 µM. In addition, the fraction unbound at 4 h, 1 μM in series [2] stood at 0.001 ± 7.01e-08.
For the compound `CC(C)=CCC[C@](C)(O[C@@H]1O[C@H](CO)[C@@H](O)[C@H](O)[C@H]1O)[C@H]1CC[C@]2(C)[C@@H]1[C@H](O)C[C@@H]1[C@@]3(C)CC[C@H](O[C@@H]4O[C@H](CO)[C@@H](O)[C@H](O)[C@H]4O[C@@H]4O[C@H](CO)[C@@H](O)[C@H](O)[C@H]4O)C(C)(C)[C@@H]3CC[C@]12C` [Rd, ginsenoside Rd], at OATP1B1 [3], the IC50 was found to be 15.9 µM.
On to `CC(C)=CCC[C@](C)(O[C@@H]1O[C@H](CO[C@@H]2OC[C@H](O)[C@H](O)[C@H]2O)[C@@H](O)[C@H](O)[C@H]1O)[C@H]1CC[C@]2(C)[C@@H]1[C@H](O)C[C@@H]1[C@@]3(C)CC[C@H](O[C@@H]4O[C@H](CO)[C@@H](O)[C@H](O)[C@H]4O[C@@H]4O[C@H](CO)[C@@H](O)[C@H](O)[C@H]4O)C(C)(C)[C@@H]3CC[C@]12C` [Rb2, ginsenoside Rb2], for which the IC50 against OATP1B3 came to 5.1 µM; on OATP1B1 [1], 8.8 µM; against OATP1B1 [3], 47.6 µM. The fraction unbound at 4 h, 1 μM in series [2] was 0.001 ± 4e-08.
Consider `CC(C)=CCC[C@](C)(O[C@@H]1O[C@H](CO)[C@@H](O)[C@H](O)[C@H]1O)[C@H]1CC[C@]2(C)[C@@H]1[C@H](O)C[C@@H]1[C@@]3(C)CC[C@H](O)C(C)(C)[C@@H]3[C@@H](O[C@@H]3O[C@H](CO)[C@@H](O)[C@H](O)[C@H]3O[C@@H]3O[C@@H](C)[C@H](O)[C@@H](O)[C@H]3O)C[C@]12C` [Re, ginsenoside Re], for which the “IC50 UGT1A9” value with UGT1A9 is reported as “did not inhibit”. In addition, the IC50 at OATP1B1 [3] is above 100 µM. For the same compound, the “IC50 OATP1B1” value on OATP1B1 [3] (setting [4]) was “did not inhibit”.
`CC(C)=CCC[C@](C)(O)[C@H]1CC[C@]2(C)[C@@H]1[C@H](O)C[C@@H]1[C@@]3(C)CC[C@H](O[C@@H]4O[C@H](CO)[C@@H](O)[C@H](O)[C@H]4O)C(C)(C)[C@@H]3CC[C@]12C` [Rh2, ginsenoside Rh2] displayed an IC50 against OATP1B1 [3] of 22.3 µM.
With `CC(C)=CCC[C@](C)(O)[C@H]1CC[C@]2(C)[C@@H]1[C@H](O)C[C@@H]1[C@@]3(C)CC[C@H](O)C(C)(C)[C@@H]3[C@@H](O)C[C@]12C` [PPT, protopanaxatriol], at OATP1B1 [3] (setting [4]), the “IC50 OATP1B1” value is listed as “did not inhibit”. Also, on OATP1B1 [3] (setting [5]), the concentration for half-maximal inhibition (IC50) is above 100 µM.
Regarding `CC(C)=CCC[C@](C)(O[C@@H]1O[C@H](CO[C@@H]2O[C@H](CO)[C@@H](O)[C@H](O)[C@H]2O)[C@@H](O)[C@H](O)[C@H]1O)[C@H]1CC[C@]2(C)[C@@H]1[C@H](O)C[C@@H]1[C@@]3(C)CC[C@H](O[C@@H]4O[C@H](CO)[C@@H](O)[C@H](O)[C@H]4O[C@@H]4O[C@H](CO)[C@@H](O)[C@H](O)[C@H]4O)C(C)(C)[C@@H]3CC[C@]12C` [Rb1, ginsenoside Rb1], the concentration for half-maximal inhibition (IC50) is 4.1 µM on OATP1B3, 24.1 µM on OATP1B1 [1], 21.3 µM in the series with UGT1A9 and 68.2 µM at OATP1B1 [3]. This compound also had a free fraction (fraction unbound) at 4 h, 1 μM in series [2] of 0.002.
Consider `CC(C)=CCC[C@](C)(O)[C@H]1CC[C@]2(C)[C@@H]1[C@H](O)C[C@@H]1[C@@]3(C)CC[C@H](O)C(C)(C)[C@@H]3[C@@H](O[C@@H]3O[C@H](CO)[C@@H](O)[C@H](O)[C@H]3O)C[C@]12C` [Rh1, ginsenoside Rh1], for which the IC50 at OATP1B1 [3] is above 100 µM. Further, the “IC50 OATP1B1” value at OATP1B1 [3] (setting [4]) is “did not inhibit”.
As for `CC(C)=CCCC(C)(O)[C@H]1CC[C@]2(C)[C@@H]1[C@H](O)C[C@@H]1[C@@]3(C)CC[C@H](O)C(C)(C)[C@@H]3CC[C@]12C` (stereo in doubt) [PPD, protopanaxadiol], the IC50 on OATP1B1 [3] (setting [5]) was above 100 µM.
Regarding `CC(C)=CCC[C@](C)(O[C@@H]1O[C@H](CO)[C@@H](O)[C@H](O)[C@H]1O)[C@H]1CC[C@]2(C)[C@@H]1[C@H](O)C[C@@H]1[C@@]3(C)CC[C@H](O)C(C)(C)[C@@H]3[C@@H](O[C@@H]3O[C@H](CO)[C@@H](O)[C@H](O)[C@H]3O)C[C@]12C` [Rg1, ginsenoside Rg1], in the series with UGT1A9, the “IC50 UGT1A9” value is on record as “did not inhibit”. This compound returned a concentration for half-maximal inhibition (IC50) against OATP1B1 [3] above 100 µM. Also, at OATP1B1 [3] (setting [4]), the “IC50 OATP1B1” value is reported as “did not inhibit”.
`CC(C)=CCC[C@](C)(O)[C@H]1CC[C@]2(C)[C@@H]1[C@H](O)C[C@@H]1[C@@]3(C)CC[C@H](O[C@@H]4O[C@H](CO)[C@@H](O)[C@H](O)[C@H]4O[C@@H]4O[C@H](CO)[C@@H](O)[C@H](O)[C@H]4O)C(C)(C)[C@@H]3CC[C@]12C` [Rg3, ginsenoside Rg3]: the half-inhibitory concentration (IC50) in the series on UGT1A9 is 15.1 µM; on OATP1B1 [3] (setting [5]), 7.99 µM.
As to `CC(C)=CCC[C@](C)(O[C@@H]1O[C@H](CO)[C@@H](O)[C@H](O)[C@H]1O)[C@H]1CC[C@]2(C)[C@@H]1[C@H](O)C[C@@H]1[C@@]3(C)CC[C@H](O)C(C)(C)[C@@H]3CC[C@]12C` [Compound K, compound K], the IC50 at OATP1B1 [3] (setting [5]) was determined as 22.5 µM.
